Species on record: Rattus norvegicus
Assay: Open TG-GATES - Regimen: Daily Repeat
Type: toxicity, organism-based, Sprague-Dawley
Set-up: regimen Daily Repeat, gender Male, age 6 weeks
Conditions: in vivo, po, 0 mg/kg, route gavage, dose level Control; for APTT / Bas / Eos / Fbg / Hb / Ht / Lym / MCH / MCHC / MCV / Mono / Neu / PT / Plat / RBC / Ret / WBC: tissue Blood; for KIDNEY_L / KIDNEY_R / KIDNEY_TOTAL: tissue Kidney; for LIVER: tissue Liver; for A/G / ALP / ALT / AST / BUN / CRE / Ca / Cl / DBIL / GLC / IP / K / LDH / Na / PL / RALB / TBIL / TC / TG / TP / gamma-GTP: tissue Plasma

CCOC(=O)CCC(=O)O[C@H]1[C@H](O[C@@H]2[C@@H](C)[C@H](O[C@H]3C[C@@](C)(OC)[C@@H](O)[C@H](C)O3)[C@@H](C)C(=O)O[C@H](CC)[C@@](C)(O)[C@H](O)[C@@H](C)C(=O)[C@H](C)C[C@@]2(C)O)O[C@H](C)C[C@@H]1N(C)C [ERYTHROMYCIN ETHYLSUCCINATE]
TERMINAL_BW (72 h, time 3 day): 237.5 g
APTT (72 h, time 3 day): 21.3 s
Bas (72 h, time 3 day): 0%
Eos (72 h, time 3 day): 1%
Fbg (72 h, time 3 day): 295.4 mg/dL
Hb (72 h, time 3 day): 13.4 g/dL
Ht (72 h, time 3 day): 39.6%
Lym (72 h, time 3 day): 78.6%
MCH (72 h, time 3 day): 21.3 pg
MCHC (72 h, time 3 day): 33.7%
MCV (72 h, time 3 day): 63 fL
Mono (72 h, time 3 day): 3.4%
Neu (72 h, time 3 day): 16.2%
PT (72 h, time 3 day): 16.3 s
Plat (72 h, time 3 day): 124.3 x10_4/uL
RBC (72 h, time 3 day): 628.8 x10_4/ul
Ret (72 h, time 3 day): 6.2%
WBC (72 h, time 3 day): 96.6 x10_2/uL
KIDNEY_L (72 h, time 3 day): 1.1 g
KIDNEY_R (72 h, time 3 day): 1.1 g
KIDNEY_TOTAL (72 h, time 3 day): 2.1 g
LIVER (72 h, time 3 day): 10.7 g
A/G (72 h, time 3 day): 1.2
ALP (72 h, time 3 day): 1575.2 IU/L
ALT (72 h, time 3 day): 38.2 IU/L
AST (72 h, time 3 day): 68.6 IU/L
BUN (72 h, time 3 day): 17.8 mg/dL
CRE (72 h, time 3 day): 0.2 mg/dL
Ca (72 h, time 3 day): 10.1 mg/dL
Cl (72 h, time 3 day): 107.6 meq/L
DBIL (72 h, time 3 day): 0 mg/dL
GLC (72 h, time 3 day): 198.2 mg/dL
IP (72 h, time 3 day): 6.6 mg/dL
K (72 h, time 3 day): 4.3 meq/L
LDH (72 h, time 3 day): 181.8 IU/L
Na (72 h, time 3 day): 141 meq/L
PL (72 h, time 3 day): 139.8 mg/dL
RALB (72 h, time 3 day): 2.9 g/dL
TBIL (72 h, time 3 day): 0.016 mg/dL
TC (72 h, time 3 day): 71.4 mg/dL
TG (72 h, time 3 day): 91 mg/dL
TP (72 h, time 3 day): 5.4 g/dL
gamma-GTP (72 h, time 3 day): 1.2 IU/L
TERMINAL_BW ([…], time 7 day): 272.7 g
TERMINAL_BW ([…], time 14 day): 330.3 g
TERMINAL_BW ([…], time 28 day): 372.4 g
APTT ([…], time 7 day): 20.5 s
Bas ([…], time 7 day): 0%
Eos ([…], time 7 day): 1%
Fbg ([…], time 7 day): 307.2 mg/dL
Hb ([…], time 7 day): 14.1 g/dL
Ht ([…], time 7 day): 41.9%
Lym ([…], time 7 day): 78.2%
MCH ([…], time 7 day): 21 pg
MCHC ([…], time 7 day): 33.6%
MCV ([…], time 7 day): 62.4 fL
Mono ([…], time 7 day): 2.4%
Neu ([…], time 7 day): 17.4%
PT ([…], time 7 day): 16.6 s
Plat ([…], time 7 day): 119.4 x10_4/uL
RBC ([…], time 7 day): 673.2 x10_4/ul
Ret ([…], time 7 day): 6.2%
WBC ([…], time 7 day): 121.5 x10_2/uL
APTT ([…], time 14 day): 22.3 s
Bas ([…], time 14 day): 0%
Eos ([…], time 14 day): 1%
Fbg ([…], time 14 day): 317.8 mg/dL
Hb ([…], time 14 day): 13.9 g/dL
Ht ([…], time 14 day): 40.4%
Lym ([…], time 14 day): 80.2%
MCH ([…], time 14 day): 21.2 pg
MCHC ([…], time 14 day): 34.5%
MCV ([…], time 14 day): 61.5 fL
Mono ([…], time 14 day): 2.4%
Neu ([…], time 14 day): 14.8%
PT ([…], time 14 day): 16.3 s
Plat ([…], time 14 day): 104.3 x10_4/uL
RBC ([…], time 14 day): 656.6 x10_4/ul
Ret ([…], time 14 day): 5.2%
WBC ([…], time 14 day): 110.8 x10_2/uL
APTT ([…], time 28 day): 24.4 s
Bas ([…], time 28 day): 0%
Eos ([…], time 28 day): 1%
Fbg ([…], time 28 day): 317.2 mg/dL
Hb ([…], time 28 day): 15.2 g/dL
Ht ([…], time 28 day): 44%
Lym ([…], time 28 day): 81.8%
MCH ([…], time 28 day): 19.4 pg
MCHC ([…], time 28 day): 34.6%
MCV ([…], time 28 day): 56.2 fL
Mono ([…], time 28 day): 2.8%
Neu ([…], time 28 day): 13%
PT ([…], time 28 day): 16.4 s
Plat ([…], time 28 day): 99.6 x10_4/uL
RBC ([…], time 28 day): 783.8 x10_4/ul
Ret ([…], time 28 day): 2.7%
WBC ([…], time 28 day): 109.9 x10_2/uL
KIDNEY_L ([…], time 7 day): 1.1 g
KIDNEY_R ([…], time 7 day): 1.1 g
KIDNEY_TOTAL ([…], time 7 day): 2.2 g
KIDNEY_L ([…], time 14 day): 1.3 g
KIDNEY_R ([…], time 14 day): 1.3 g
KIDNEY_TOTAL ([…], time 14 day): 2.6 g
KIDNEY_L ([…], time 28 day): 1.4 g
KIDNEY_R ([…], time 28 day): 1.4 g
KIDNEY_TOTAL ([…], time 28 day): 2.8 g
LIVER ([…], time 7 day): 12.3 g
LIVER ([…], time 14 day): 14.7 g
LIVER ([…], time 28 day): 14.6 g
A/G ([…], time 7 day): 1.1
ALP ([…], time 7 day): 1670.4 IU/L
ALT ([…], time 7 day): 43 IU/L
AST ([…], time 7 day): 72.2 IU/L
BUN ([…], time 7 day): 20.4 mg/dL
CRE ([…], time 7 day): 0.2 mg/dL
Ca ([…], time 7 day): 10.7 mg/dL
Cl ([…], time 7 day): 107.6 meq/L
DBIL ([…], time 7 day): 0 mg/dL
GLC ([…], time 7 day): 216.8 mg/dL
IP ([…], time 7 day): 7.3 mg/dL
K ([…], time 7 day): 4.3 meq/L
LDH ([…], time 7 day): 201.8 IU/L
Na ([…], time 7 day): 141.2 meq/L
PL ([…], time 7 day): 155.2 mg/dL
RALB ([…], time 7 day): 2.9 g/dL
TBIL ([…], time 7 day): 0 mg/dL
TC ([…], time 7 day): 70.8 mg/dL
TG ([…], time 7 day): 133.4 mg/dL
TP ([…], time 7 day): 5.6 g/dL
gamma-GTP ([…], time 7 day): 1.4 IU/L
A/G ([…], time 14 day): 1.1
ALP ([…], time 14 day): 1330.4 IU/L
ALT ([…], time 14 day): 46.6 IU/L
AST ([…], time 14 day): 76 IU/L
BUN ([…], time 14 day): 21 mg/dL
CRE ([…], time 14 day): 0.2 mg/dL
Ca ([…], time 14 day): 10.5 mg/dL
Cl ([…], time 14 day): 105.2 meq/L
DBIL ([…], time 14 day): 0 mg/dL
GLC ([…], time 14 day): 207.2 mg/dL
IP ([…], time 14 day): 7.1 mg/dL
K ([…], time 14 day): 4.5 meq/L
LDH ([…], time 14 day): 208.6 IU/L
Na ([…], time 14 day): 141.4 meq/L
PL ([…], time 14 day): 153.4 mg/dL
RALB ([…], time 14 day): 2.9 g/dL
TBIL ([…], time 14 day): 0 mg/dL
TC ([…], time 14 day): 73 mg/dL
TG ([…], time 14 day): 135.2 mg/dL
TP ([…], time 14 day): 5.7 g/dL
gamma-GTP ([…], time 14 day): 2.2 IU/L
A/G ([…], time 28 day): 1.1
ALP ([…], time 28 day): 1212.8 IU/L
ALT ([…], time 28 day): 45.8 IU/L
AST ([…], time 28 day): 71.6 IU/L
BUN ([…], time 28 day): 19.6 mg/dL
CRE ([…], time 28 day): 0.2 mg/dL
Ca ([…], time 28 day): 10.4 mg/dL
Cl ([…], time 28 day): 106.6 meq/L
DBIL ([…], time 28 day): 0 mg/dL
GLC ([…], time 28 day): 189.4 mg/dL
IP ([…], time 28 day): 6.2 mg/dL
K ([…], time 28 day): 4.1 meq/L
LDH ([…], time 28 day): 130.6 IU/L
Na ([…], time 28 day): 141 meq/L
PL ([…], time 28 day): 135.8 mg/dL
RALB ([…], time 28 day): 3 g/dL
TBIL ([…], time 28 day): 0.01 mg/dL
TC ([…], time 28 day): 62 mg/dL
TG ([…], time 28 day): 118.4 mg/dL
TP ([…], time 28 day): 5.9 g/dL
gamma-GTP ([…], time 28 day): 2.8 IU/L

From ChEMBL document CHEMBL3885861, “Open TG-GATES”
